Source: publication PMC11357100 (2024)

Tests used:
Experiment in all cases: UV melting at 295 nm
[1] = test system: c-KIT1 (DNA, G4) AGGGAGGGCGCTGGGAGGAGGG; conditions: 10 mM KCl, 90 mM LiCl; 10 mM Tris-HCl pH 7.2; 2 µM DNA, 3 equiv. ligand; Tm 52.9 ± 1.0 to 54.40 ± 0.60
[2] = test system: catG4 (DNA, G4) TGGGTAGGGCGGGTTGGGAAA; conditions: 10 mM KCl, 90 mM LiCl; 10 mM Tris-HCl pH 7.2; 2 µM DNA, 3 equiv. ligand; Tm 63.30 ± 0.10 to 62.80 ± 0.30
[3] = test system: c-MYC (DNA, G4) TGAGGGTGGGTAGGGTGGGTAA; conditions: 10 mM KCl, 90 mM LiCl; 10 mM Tris-HCl pH 7.2; 2 µM DNA, 3 equiv. ligand; Tm 79.10 ± 0.10 to 80.6 ± 1.7
[4] = test system: RET (DNA, G4) GGGGCGGGGCGGGGCGGGGT; conditions: 10 mM KCl, 90 mM LiCl; 10 mM Tris-HCl pH 7.2; 2 µM DNA, 3 equiv. ligand; Tm 75.30 ± 0.80 to 76.4 ± 1.2

ΔTm [1]: 1.5 °C
ΔTm [2]: -0.5 °C
ΔTm [3]: 1.5 °C
ΔTm [4]: 1.1 °C
Compound: COc1nc2c(N)ncnc2[n+]2ccccc12
